{"source": "paper PMC2852430", "about": "(Biochemistry, 2010)", "key": {"[1]": {"test_system": "cells containing human β1", "details": "cited from earlier work"}, "[2]": {"test_system": "bovine brain tubulin (BbTb)", "assay": "Inhibition of paclitaxel-induced tubulin assembly", "type": "biochemical", "details": "read-out: IC50, inhibition of Taxol-induced assembly of BbTb; 2 μM tubulin"}, "[3]": {"test_system": "bovine brain tubulin (BbTb)", "assay": "Association kinetics of ligand binding to BbTb by fluorescence", "details": "25°C, […] μM allocolchicine; for kf, apparent second order rate constant of the fast phase of biphasic binding to BbTb: 1 μM BbTb, 20 μM colchicinoid"}, "[4]": {"test_system": "bovine brain tubulin (BbTb)", "assay": "Equilibrium fluorescence titration of allocolchicine with BbTb", "type": "binding", "details": "25°C"}, "[5]": {"target": "chicken erythrocyte tubulin (CeTb), ~95% βVI (Gallus gallus, UniProt P09207)", "sequence (P09207 whole entry)": "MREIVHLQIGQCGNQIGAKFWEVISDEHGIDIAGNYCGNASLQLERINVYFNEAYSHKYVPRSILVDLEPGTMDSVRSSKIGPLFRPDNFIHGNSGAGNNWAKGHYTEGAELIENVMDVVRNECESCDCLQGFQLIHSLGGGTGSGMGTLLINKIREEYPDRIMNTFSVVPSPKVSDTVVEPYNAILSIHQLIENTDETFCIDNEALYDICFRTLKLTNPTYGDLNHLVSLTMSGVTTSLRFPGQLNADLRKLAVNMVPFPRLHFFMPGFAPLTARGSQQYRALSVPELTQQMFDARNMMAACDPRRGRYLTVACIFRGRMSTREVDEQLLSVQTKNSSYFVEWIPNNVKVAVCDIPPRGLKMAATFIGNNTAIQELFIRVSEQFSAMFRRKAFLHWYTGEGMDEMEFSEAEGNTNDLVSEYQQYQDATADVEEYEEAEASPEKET", "sequence (P02552 whole entry partner)": "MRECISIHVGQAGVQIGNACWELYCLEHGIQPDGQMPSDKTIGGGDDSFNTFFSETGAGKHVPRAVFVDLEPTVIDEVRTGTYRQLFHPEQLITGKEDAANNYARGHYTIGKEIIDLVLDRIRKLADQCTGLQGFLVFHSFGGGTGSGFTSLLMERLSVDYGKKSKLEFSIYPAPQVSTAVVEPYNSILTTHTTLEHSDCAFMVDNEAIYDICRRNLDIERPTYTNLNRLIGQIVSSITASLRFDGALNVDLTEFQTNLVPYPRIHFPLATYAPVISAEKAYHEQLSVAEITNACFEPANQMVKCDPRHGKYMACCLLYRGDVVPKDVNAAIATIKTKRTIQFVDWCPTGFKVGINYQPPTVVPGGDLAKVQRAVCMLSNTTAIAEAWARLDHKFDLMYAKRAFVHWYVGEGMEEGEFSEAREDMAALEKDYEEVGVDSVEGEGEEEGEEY", "assay": "biochemical", "type": "biochemical"}}}
{"smiles": "COc1cc2c(cc1O)CC[C@@H]1[C@@H]2CC[C@]2(C)[C@@H](O)CC[C@@H]12", "note": "[2-methoxyestradiol]", "values": [{"measurement": "Sensitivity of cells containing human β1 to ligand", "setting": "[1]", "result": "insensitive"}]}
{"smiles": "COC(=O)c1ccc2c(c1)[C@@H](NC(C)=O)CCc1cc(OC)c(OC)c(OC)c1-2", "note": "[Allocolchicine, allocolchicine]", "values": [{"measurement": "IC50", "setting": "[2]", "result": 0.5, "unit": "µM"}, {"measurement": "kf, apparent second order rate constant of the fast phase of biphasic binding to BbTb", "setting": "[3]", "result": "343 ± 7", "unit": "M⁻¹ s⁻¹"}, {"measurement": "Time for binding to BbTb to attain a plateau", "setting": "[3]; 1 μM tubulin", "result": "≤ 600", "unit": "s"}, {"measurement": "Ligand concentration at which fluorescence enhancement plateaus, BbTb", "setting": "[4]; 1 μM BbTb", "result": "about 20 μM"}, {"measurement": "Association constant (Ka) for BbTb", "setting": "[4]; 1 μM tubulin, 10% DMSO, single site isotherm", "result": 500000, "unit": "M⁻¹"}]}
{"smiles": "COc1cc2c(c(OC)c1OC)-c1ccc(Cl)c(=O)cc1C(NC(C)=O)CC2", "note": "(stereo not drawn) [Chlorocolchicine, 10-demethoxy-10-chlorocolchicine]", "values": [{"measurement": "kf, apparent second order rate constant of the fast phase of biphasic binding to BbTb", "setting": "[3]", "result": "367 ± 7", "unit": "M⁻¹ s⁻¹"}]}
{"smiles": "COc1cc([C@@H]2c3cc4c(cc3[C@H](O)[C@H]3COC(=O)[C@H]23)OCO4)cc(OC)c1OC", "note": "[Podophyllotoxin, podophyllotoxin]", "values": [{"measurement": "IC50", "setting": "[5]", "result": "25 ± 1", "unit": "µM"}, {"measurement": "IC50 for CeTb assembly relative to IC50 for BbTb", "setting": "[5]; 5 μM tubulin, same experimental conditions", "result": "about 15 fold"}]}
